Test system: 171881-019-R-J1-PDC multicell spheroid viability
Assay: Anticancer human tumor 171881-019-R-J1-PDC patient-derived invasive breast carcinoma cell line growth inhibition [IpAb]
Conditions: for IC50: curve of first compound; for viability, T/C: stronger effect = lower value
Outline: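 Multi-cell spheroids of 60% tumour cells, 25% HUVEC and 15% MSC in ultra-low-attachment U-bottom wells, treated with agents combined with ipatasertib or abemaciclib. Half-log ranges top out near clinical Cmax, or 10 microM when Cmax is unknown.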
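Note: spheroids exposed to the agents for seven days before readout.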

C=CC(=O)N1CCN(c2nc(=O)n(-c3c(C)ccnc3C(C)C)c3nc(-c4c(O)cccc4F)c(F)cc23)C(C)C1 (stereo not given) + CC(C)NCC(C(=O)N1CCN(c2ncnc3c2C(C)CC3O)CC1)c1ccc(Cl)cc1
IC50 (second compound 0.1 µM): 5260 nM | IC50 (second compound 0.316 µM): 1830 nM | IC50 (second compound 1 µM): < 31.6 nM | IC50 (second compound 3.16 µM): < 31.6 nM | IC50 (second compound 10 µM): < 31.6 nM | viability, T/C (second compound 0.1 µM, first compound 0.0316 µM): 102% | viability, T/C (second compound 0.1 µM, first compound 0.1 µM): 87.7% | viability, T/C (second compound 0.1 µM, first compound 0.316 µM): 90% | viability, T/C (second compound 0.1 µM, first compound 1 µM): 95.9% | viability, T/C (second compound 0.1 µM, first compound 3.16 µM): 74.2% | viability, T/C (second compound 0.1 µM, first compound 10 µM): 19.5% | viability, T/C (second compound 0.316 µM, first compound 0.0316 µM): 74.1% | viability, T/C (second compound 0.316 µM, first compound 0.1 µM): 67% | viability, T/C (second compound 0.316 µM, first compound 0.316 µM): 69% | viability, T/C (second compound 0.316 µM, first compound 1 µM): 64.7% | viability, T/C (second compound 0.316 µM, first compound 3.16 µM): 36.8% | viability, T/C (second compound 0.316 µM, first compound 10 µM): 13.2% | viability, T/C (second compound 1 µM, first compound 0.0316 µM): 24.6% | viability, T/C (second compound 1 µM, first compound 0.1 µM): 26.6% | viability, T/C (second compound 1 µM, first compound 0.316 µM): 25.9% | viability, T/C (second compound 1 µM, first compound 1 µM): 22.1% | viability, T/C (second compound 1 µM, first compound 3.16 µM): 17.3% | viability, T/C (second compound 1 µM, first compound 10 µM): 7.56% | viability, T/C (second compound 3.16 µM, first compound 0.0316 µM): 10.2% | viability, T/C (second compound 3.16 µM, first compound 0.1 µM): 11.7% | viability, T/C (second compound 3.16 µM, first compound 0.316 µM): 10.2% | viability, T/C (second compound 3.16 µM, first compound 1 µM): 11.5% | viability, T/C (second compound 3.16 µM, first compound 3.16 µM): 8.09% | viability, T/C (second compound 3.16 µM, first compound 10 µM): 4.11% | viability, T/C (second compound 10 µM, first compound 0.0316 µM): 5.17% | viability, T/C (second compound 10 µM, first compound 0.1 µM): 5.24% | viability, T/C (second compound 10 µM, first compound 0.316 µM): 6.38% | viability, T/C (second compound 10 µM, first compound 1 µM): 5.65% | viability, T/C (second compound 10 µM, first compound 3.16 µM): 5.64% | viability, T/C (second compound 10 µM, first compound 10 µM): 3.86%

Source: PubChem BioAssay AID2060342 (Molecular Pharmacology Branch, DTP, NCI, 2025)
